Experimental data reported in US11365450B2, “Group classification and prognosis prediction system based on biological characteristics of gastric cancer” (Novomics Co., Ltd., priority 2017, dated 2022).
Entries after “also recorded” stand apart in the source; their conditions may differ.

Experiments:
Format in all cases: cell-based, Human
[1] = tested on: Hs746T cells; experiment: invasion assay (HUVEC monolayer transwell); conditions: LY2157299 50 μM; 48 hours incubation
Experimental: Invasion assay: For the assay, 2×10^4 HUVEC cells were placed in a culture medium (M199) in a fibronectin-coated transwell, followed by coating the bottom of the transwell with 0.2% gelatin and cell culture for 48 hours until monolayer formation. Thereafter, 1×10^5/50 μl Hs746T and NCI-N87 cells containing FBS-free CellTracker™ (Molecular Probes, C2925) were separately added to the transwell. A culture medium containing 10% FBS was added to the lower chamber. After incubation for 48 hours, upper cells of the membrane were removed using a cotton swab. Cells on the lower membrane were lysed in 200 μl of a lysis buffer at room temperature for 2 hours to 3 hours. Fluorescence was measured with Ex/Em 492/517. To examine the effect of a TGF-β inhibitor on cell invasion ability, 50 μM of LY2157299 (AdooQ, California, USA) was administered.

[2] = tested on: Hs746T cells; experiment: in vitro tumor spheroid formation assay; conditions: LY2157299 50 μM; 30 days of cell culture
Experimental: Tumor spheroid formation assay: Ten cells were cultured in 50 μl of DMEM/F12 (Gibco) supplemented with bFGF, EGF, B27, 10% FBS, and 1% antibiotics in a 96-well plate. After 30 days of cell culture, the number of tumor spheroids in each well was counted. In addition, LY2157299 (50 μM) was administered to examine the effect of the TGF-β inhibitor on tumor sphere formation.

[3] = tested on: Hs746T cells; experiment: in vitro scratch wound-healing (migration) assay; conditions: LY2157299 50 μM; wound width after 72 hours
Experimental: Migration assay: Hs746T and NCI-N87 cells were grown into monolayers in a culture medium containing 10% FBS and 1% antibiotics. When confluency reached 70%, the cell monolayers were scratched with a 100-μl pipette tip. After 72 hours, the wound width was measured and normalized by the wound width measured immediately after scratching. LY2157299 (50 μM) was administered to evaluate the effect of the TGF-β inhibitor on cell migration.

Cc1cccc(-c2nn3c(c2-c2ccnc4ccc(C(N)=O)cc24)CCC3)n1 [LY2157299]
delayed; also recorded: suppression: invasion ability of Hs746T cells [1] | 3D spheroid formation ability of Hs746T cells [2] | wound-healing ability of Hs746T cells [3]
